Experimental data from patent US10159635B2, “Cosmetic and pharmaceutical uses of saccharides” (CURAPEL (SCOTLAND) LIMITED, priority 2012, dated 2018).

Key:
[1] = test system: melanin in ex-vivo human skin; experiment: Masson Fontana melanin staining of ex-vivo human skin in organ culture; assay type: cell-based
Method: Samples of full thickness ex-vivo human skin were obtained from elective plastic surgery procedures. […] Two concentrations of the NDO melibiose, 1.5 and 3.0% (w/v) were tested for their ability to reduce skin pigmentation by addition to the medium surrounding the cultured skin samples at day 1 and every time the medium was changed thereafter. As a control some skin samples were cultured under identical conditions apart from the […] of melibiose.
At day 6, the skin samples were immersed in cryo-embedding medium and 5 μm sections cut and stained using the Masson Fontana assay. The principle of the Masson Fontana assay is that melanin granules reduce silver from ammoniacal silver nitrate solution to a visible metallic state. Information on the protocol for the Masson-Fontana Assay may be found in relevant laboratory handbooks, for example Lille RD, 1965, Histopathologic Technique and Practical Histochemistry, 3rd Ed 1965, the Blakiston Division, McGraw Hill Book Company, p 240, which is incorporated herein by reference.
Following the fixation of cryosections of skin with ethanol/acetic acid, slides were heated in 0.5% ammoniacal silver nitrate solution using a microwave. Sections were then toned in 1% gold chloride, fixed in 5% sodium thiosulphate and counterstained with haematoxylin before mounting using DPEX. Melanin stain can then be visualised using light microscopy.
Samples of full thickness ex-vivo human skin were obtained as described in Example 1 and were maintained in organ culture for 6 days. Two concentrations of the NDO melibiose, 25 mM and 50 mM, and two concentration of the NDO P95 (a 95% mixture of oligofructose, also known as fructooligosaccharides (FOS)), 25 mM and 50 mM, were tested for their ability to reduce skin pigmentation by addition to the medium surrounding the cultured skin samples at day 1 and every time the medium was changed thereafter. As a control some skin samples were cultured under identical conditions apart from the absence of NDO. […]

[2] = test system: interleukin-8 (IL-8) production by HaCaT keratinocytes; experiment: IL-8 ELISA on culture supernatant of keratinocytes; assay type: cell-based
Method: Following an overnight coating of a flat-bottomed 96 well plate with an anti-IL-8 antibody, a 9-point IL-8 standard curve was generated using serial dilutions from a 2000 pg/ml IL-8 stock solution. These were cultured on the 96 well plate for 2 h along side culture supernatants derived from keratinocytes exposed to sugars. The plate was then washed and incubated for 2 h with an anti-IL-8 biotin-antibody before the plate was again washed and left for 20 min with a solution of streptavidin-HRP. After a final wash the plate was coated with a solution of tetramethyl benzidine forming a blue reaction product, the intensity of which relates to amount of IL-8 present in the original culture supernatant. This reaction was stopped using sulphuric acid turning the solution yellow which was then read on a microplate reader at […]. Unknown sample concentrations of IL-8 were determined using the standard curve.

Q: Which “reduction in melanin staining (mean density, image analysis) in treated skin vs control” value ([1]; Example 1, ex-vivo human skin, 6 days culture, 25 mM or 50 mM melibiose, FIG. 2b) does the source give for `OC[C@H]1O[C@H](OCC2O[C@@H](O)[C@H](O)[C@@H](O)[C@@H]2O)[C@H](O)[C@@H](O)[C@H]1O` (some centres unmarked) [melibiose] here?
A: The value was “approximately 10%”.

Q: And the “melanin in stained skin sections, treated vs untreated control” value ([1]; Example 1, full thickness ex-vivo human skin, 6 days organ culture, melibiose 1.5 and 3.0% (w/v) in medium, FIG. 2a)?
A: The value was “significant reduction in melanin”.

Q: What about the “mean density of melanin staining, treated skin vs control” value ([1]; Example 2, ex-vivo human skin, 6 days organ culture, 25 mM or 50 mM NDO in medium, FIG. 3) of the same compound?
A: Its value is “reduction in melanin staining”.

Q: And the “constitutive (baseline) IL-8 secretion” value ([2]; HaCaT keratinocytes, unstimulated, FIG. 4a)?
A: Its value is “mildly dose-responsive suppression”.

Q: And the “IL-8 secretion in response to IL-1β stimulation” value ([2]; keratinocytes stimulated with IL-1β, 5% melibiose, FIG. 4b)?
A: The value was “reduced to nearly control levels”.
